Columns and labels:
[1] = test system: green fluorescent protein (GFP) target; assay: STUD-induced degradation of GFP target in Jurkat T cells, flow cytometry; format: cell-based; conditions: GFP normalized by tagBFP, 72 hours following removal of lentivirus
Description: Jurkat cells were lentivirally transduced with two plasmids. The first encodes a STUD, or control with a mutated degron, and a mCherry transduction marker separated by a 2A element and the second encodes GFP target protein and a BFP transduction marker separated by a 2A element. In the case of the SynZip STUD, the GFP target is fused to a heterodimeric SynZip protein complementary to the binding domain on the STUD. These transduced cells are analyzed for fluorescence by flow cytometry […] after removal of virus. Cells are first gated on these transduction markers to isolate relevant populations. Then, normalized GFP fluorescence is calculated by normalizing each cell's GFP fluorescence, as obtained by flow cytometry, by its BFP fluorescence. Then, the median normalized GFP fluorescence of each flow cytometry distribution is calculated and shown in the bar plot. Each dot represents the mean of the median normalized GFP fluorescence of three technical replicates in three independent experiments. […]
Either the SynZip STUD and the antiGFP nanobody STUD in Jurkat T cells alongside a plasmid encoding either GFP fused to a complementary SynZip or GFP alone, respectively (FIG. 2B) were lentivirally transduced. 72 hours following removal of lentivirus, we assay for GFP fluorescence by flow cytometry. […] Representative histograms of unnormalized GFP fluorescence are also shown for reference. […]

[2] = test system: 4-1BB variant second-generation ('BBz') CARs that target CD19 or HER2; assay: Surface CAR expression in Jurkat T cells by anti-myc antibody stain and flow cytometry; format: cell-based; conditions: 72 hours after removal of lentivirus
Description: FIG. 4A: Tethering of STUD to plasma membrane allows for functional knockdown for second-generation chimeric antigen receptors (CAR). Cartoon diagram of membrane tethered STUD (‘memSTUD’) and non-functional (‘NF’) control relative to original ‘soluble’ STUD design. The DNA cartoon represents the plasmid used in experiments done in this panel. (RRRG (SEQ ID NO:32); TRGN (SEQ ID NO:50)).
FIG. 4B: Plasmid diagramed in FIG. 4A transduced into Jurkat T cells and CAR fluorescence measured 72 hours removal of lentivirus. CAR fluorescence is measured by antibody stain for myc tag fused to CAR extracellular domain. […] Dots represent three independent experiments and errors bars show standard deviation.
Increasing the local concentration of the STUD at the membrane by fusion to a membrane localization domain was tested. […] The surface CAR expression by fluorescence of this antibody stain was measured by flow cytometry.
Membrane targeting STUD: Membrane targeting cells were introduced by lentiviral transduction of two plasmids. […] Cells were then analyzed by flow cytometry. Cells were gated on expression of co-transduction fluorescent proteins (BFP/mCherry) and STUD efficacy was measured by knockdown of CAR/SynNotch. CAR and SynNotch expression was measured by antibody staining for a peptide tag fused to the extracellular domain of the CAR/SynNotch. […]

SynZip STUD: Fusion protein SEQ ID NO: 413: lysine-free modified synZIP18 heterodimerization domain, flexible linker, C-terminal RRRG degron; 55 amino acids (SIAATLENDLARLENENARLERDIANLERDLARLEREEAYFGSGSGSGSGSRRRG)
fold change of median normalized GFP fluorescence [1]: approximately 42 fold
degradation of CAR (surface CAR expression) [2]: inefficiently

Reference: patent US20250136652A1, “FUSION PROTEIN FOR TARGETING RECOMBINANT PROTEINS FOR DEGRADATION” (The Regents of the University of California, priority 2022, published 2025)
